According to publication PMC5927461, “Activation of host transient receptor potential (TRP) channels by praziquantel stereoisomers” (PLoS Neglected Tropical Diseases, 2018):

Key:
[1] = test system: mouse mesenteric arteries; test: Wire myography, mesenteric artery strips precontracted with high K+ (KPSS)
hTRPA1 = hTRPA1 (Homo sapiens, UniProt O75762); test: TRP channel panel primary screen (FLIPR Calcium 5, stable HEK line); assay type: cell-based; details: 0.3-300μM; effects over the micromolar range
Sequence of hTRPA1 (O75762 whole entry): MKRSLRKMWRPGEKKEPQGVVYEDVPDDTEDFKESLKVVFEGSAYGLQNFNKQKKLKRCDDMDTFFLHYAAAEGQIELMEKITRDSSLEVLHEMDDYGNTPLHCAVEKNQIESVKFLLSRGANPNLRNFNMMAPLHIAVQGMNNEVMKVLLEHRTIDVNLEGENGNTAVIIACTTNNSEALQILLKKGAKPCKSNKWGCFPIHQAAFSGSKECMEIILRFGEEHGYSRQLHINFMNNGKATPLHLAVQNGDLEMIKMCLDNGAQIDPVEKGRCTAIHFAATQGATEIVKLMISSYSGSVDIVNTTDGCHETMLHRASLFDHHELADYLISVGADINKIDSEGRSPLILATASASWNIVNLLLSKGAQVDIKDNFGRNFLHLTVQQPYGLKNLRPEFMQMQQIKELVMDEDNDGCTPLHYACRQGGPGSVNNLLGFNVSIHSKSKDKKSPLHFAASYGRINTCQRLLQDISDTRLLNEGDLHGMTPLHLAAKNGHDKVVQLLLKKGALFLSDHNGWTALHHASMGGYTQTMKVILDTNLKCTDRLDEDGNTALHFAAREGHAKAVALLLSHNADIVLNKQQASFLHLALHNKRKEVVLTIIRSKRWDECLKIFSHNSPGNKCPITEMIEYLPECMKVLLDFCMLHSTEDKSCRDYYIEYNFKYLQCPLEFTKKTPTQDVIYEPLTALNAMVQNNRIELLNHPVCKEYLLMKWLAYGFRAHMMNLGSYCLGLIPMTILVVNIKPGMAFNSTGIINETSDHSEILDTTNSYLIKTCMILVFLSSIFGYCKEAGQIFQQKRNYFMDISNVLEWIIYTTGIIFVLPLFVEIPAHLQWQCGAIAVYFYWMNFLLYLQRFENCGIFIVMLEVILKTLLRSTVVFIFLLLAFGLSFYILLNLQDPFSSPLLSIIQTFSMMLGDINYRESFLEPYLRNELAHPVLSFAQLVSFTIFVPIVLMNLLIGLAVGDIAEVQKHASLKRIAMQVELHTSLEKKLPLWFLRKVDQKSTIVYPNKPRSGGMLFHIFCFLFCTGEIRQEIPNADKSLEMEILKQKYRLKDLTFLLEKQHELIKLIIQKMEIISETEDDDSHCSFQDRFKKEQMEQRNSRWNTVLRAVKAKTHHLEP
Method: (§1) ±PZQ, (R)-PZQ and (S)-PZQ were screened against a panel of 17 human TRP channels (SB Drug Discovery, Glasgow). For all hTRPs, except for TRPM5, individual channel constructs were stably expressed in HEK cell lines. TRMP5 was expressed in a stable CHO cell line. In preparation for the assays, cells were trypsinized, counted and seeded (50,000 cells/well) in black, clear-bottomed 96 well plates and incubated overnight. The following day, cells were loaded with a fluorescent indicator (FLIPR Calcium 5 Assay kit for TRPA1, TRPV1, TRPV2, TRPV3, TRPV4, TRPV5, TRPC1, TRPM2, TRPM3 and TRPM8, or a membrane potential dye (FLIPR Membrane Potential Red Assay Kit for TRPC3, TRPC4, TRPC5, TRPC6, TRPC7, TRPM4 and TRPM5) prepared according to the manufacturer’s instructions in HEPES buffered Hank’s balanced salt solution (HBSS). Dye solution (10μl) was added to appropriate wells and incubated at 37°C for 1 hour. All assays were performed at room temperature. Compounds were tested at 0.3, 1, 3, 10, 30, 100μM and 300μM in triplicate in both agonist and antagonist mode to determine EC50 and IC50 values, which were compared with reference compounds. Compounds were screened at a final DMSO concentration of 0.5%. Plates were screened using a Flexstation (Molecular Devices, FX01138), monitoring fluorescence values every ~1.52 seconds. For ‘agonist mode’ testing, 10μl of the appropriate test compound, or standard agonist, was added after 20 seconds and fluorescence monitored for 2 minutes at λex = 485nm, λem = 525nm for Ca^2+ imaging and λex = 530nm, λem = 565nm for membrane potential measurements. For ‘antagonist mode’ testing, test compounds and standard inhibitors were added to appropriate wells and incubated for 10 minutes at room temperature prior to addition of standard agonist compound.

hTRPM8 = hTRPM8 (Homo sapiens, UniProt Q7Z2W7); test: as above; assay type: cell-based; details: 0.3-300μM; effects over the micromolar range
Sequence of hTRPM8 (Q7Z2W7 whole entry): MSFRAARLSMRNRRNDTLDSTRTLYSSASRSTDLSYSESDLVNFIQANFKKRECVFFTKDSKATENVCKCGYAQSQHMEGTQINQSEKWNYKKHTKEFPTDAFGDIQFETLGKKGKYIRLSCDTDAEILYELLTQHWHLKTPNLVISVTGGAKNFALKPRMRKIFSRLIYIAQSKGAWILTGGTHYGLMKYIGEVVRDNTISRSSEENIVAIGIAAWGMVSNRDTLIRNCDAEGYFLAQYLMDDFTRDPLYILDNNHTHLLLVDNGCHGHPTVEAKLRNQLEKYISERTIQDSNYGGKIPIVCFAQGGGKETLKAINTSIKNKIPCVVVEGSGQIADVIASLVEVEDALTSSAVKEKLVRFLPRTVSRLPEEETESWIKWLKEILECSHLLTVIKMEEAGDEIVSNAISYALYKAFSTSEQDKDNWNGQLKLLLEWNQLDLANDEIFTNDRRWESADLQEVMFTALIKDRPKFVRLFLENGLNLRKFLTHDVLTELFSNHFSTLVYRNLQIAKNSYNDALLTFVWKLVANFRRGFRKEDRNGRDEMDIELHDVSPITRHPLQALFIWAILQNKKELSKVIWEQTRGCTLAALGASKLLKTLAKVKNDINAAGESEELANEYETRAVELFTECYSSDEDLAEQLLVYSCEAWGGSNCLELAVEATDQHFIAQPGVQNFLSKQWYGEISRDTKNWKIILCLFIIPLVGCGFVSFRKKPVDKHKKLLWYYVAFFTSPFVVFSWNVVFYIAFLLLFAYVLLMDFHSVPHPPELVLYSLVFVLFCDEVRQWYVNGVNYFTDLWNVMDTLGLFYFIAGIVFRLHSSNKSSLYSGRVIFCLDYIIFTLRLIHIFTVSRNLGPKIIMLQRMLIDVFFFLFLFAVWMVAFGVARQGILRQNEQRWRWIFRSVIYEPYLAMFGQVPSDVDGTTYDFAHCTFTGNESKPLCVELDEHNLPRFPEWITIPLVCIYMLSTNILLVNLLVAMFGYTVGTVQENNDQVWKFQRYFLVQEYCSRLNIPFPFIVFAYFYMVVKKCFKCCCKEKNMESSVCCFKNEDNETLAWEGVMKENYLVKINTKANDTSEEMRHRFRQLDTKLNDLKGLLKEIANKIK
Method: as §1

hTRPC3 = molecular target: T1, hTRPC3 (Homo sapiens, UniProt Q13507); test: TRP channel panel primary screen (membrane potential dye, stable HEK line); assay type: cell-based; details: 0.3-300μM; effects over the micromolar range
T1 sequence (Q13507 1-921): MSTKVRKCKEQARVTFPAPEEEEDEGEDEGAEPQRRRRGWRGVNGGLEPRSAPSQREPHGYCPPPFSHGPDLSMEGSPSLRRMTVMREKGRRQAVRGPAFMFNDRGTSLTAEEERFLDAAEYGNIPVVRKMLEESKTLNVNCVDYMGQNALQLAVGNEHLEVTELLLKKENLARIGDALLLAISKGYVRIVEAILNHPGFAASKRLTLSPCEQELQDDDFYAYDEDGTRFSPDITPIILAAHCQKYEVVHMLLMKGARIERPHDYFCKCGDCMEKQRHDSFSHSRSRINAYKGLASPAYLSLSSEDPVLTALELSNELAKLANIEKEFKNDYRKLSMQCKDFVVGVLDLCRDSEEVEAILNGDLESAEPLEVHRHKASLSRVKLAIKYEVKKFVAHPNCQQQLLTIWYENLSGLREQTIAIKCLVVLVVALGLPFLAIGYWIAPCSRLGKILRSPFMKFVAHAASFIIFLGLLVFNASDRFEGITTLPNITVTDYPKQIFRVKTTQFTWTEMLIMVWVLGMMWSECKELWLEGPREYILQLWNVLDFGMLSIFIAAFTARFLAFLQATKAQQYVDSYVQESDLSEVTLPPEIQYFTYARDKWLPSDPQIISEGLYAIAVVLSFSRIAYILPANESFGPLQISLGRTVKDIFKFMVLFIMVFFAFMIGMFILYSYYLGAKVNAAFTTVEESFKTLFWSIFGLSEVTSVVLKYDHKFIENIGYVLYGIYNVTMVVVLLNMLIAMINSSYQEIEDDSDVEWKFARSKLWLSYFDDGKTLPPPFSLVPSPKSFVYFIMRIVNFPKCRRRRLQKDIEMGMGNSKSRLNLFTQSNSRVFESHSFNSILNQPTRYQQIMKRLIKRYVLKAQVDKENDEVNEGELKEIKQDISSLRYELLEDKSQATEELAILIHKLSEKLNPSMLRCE
Method: as §1

hTRPC7 = molecular target: T2, hTRPC7 (Homo sapiens, UniProt Q9HCX4); test: as above; assay type: cell-based; details: 0.3-300μM; effects over the micromolar range
T2 sequence (Q9HCX4 1-862): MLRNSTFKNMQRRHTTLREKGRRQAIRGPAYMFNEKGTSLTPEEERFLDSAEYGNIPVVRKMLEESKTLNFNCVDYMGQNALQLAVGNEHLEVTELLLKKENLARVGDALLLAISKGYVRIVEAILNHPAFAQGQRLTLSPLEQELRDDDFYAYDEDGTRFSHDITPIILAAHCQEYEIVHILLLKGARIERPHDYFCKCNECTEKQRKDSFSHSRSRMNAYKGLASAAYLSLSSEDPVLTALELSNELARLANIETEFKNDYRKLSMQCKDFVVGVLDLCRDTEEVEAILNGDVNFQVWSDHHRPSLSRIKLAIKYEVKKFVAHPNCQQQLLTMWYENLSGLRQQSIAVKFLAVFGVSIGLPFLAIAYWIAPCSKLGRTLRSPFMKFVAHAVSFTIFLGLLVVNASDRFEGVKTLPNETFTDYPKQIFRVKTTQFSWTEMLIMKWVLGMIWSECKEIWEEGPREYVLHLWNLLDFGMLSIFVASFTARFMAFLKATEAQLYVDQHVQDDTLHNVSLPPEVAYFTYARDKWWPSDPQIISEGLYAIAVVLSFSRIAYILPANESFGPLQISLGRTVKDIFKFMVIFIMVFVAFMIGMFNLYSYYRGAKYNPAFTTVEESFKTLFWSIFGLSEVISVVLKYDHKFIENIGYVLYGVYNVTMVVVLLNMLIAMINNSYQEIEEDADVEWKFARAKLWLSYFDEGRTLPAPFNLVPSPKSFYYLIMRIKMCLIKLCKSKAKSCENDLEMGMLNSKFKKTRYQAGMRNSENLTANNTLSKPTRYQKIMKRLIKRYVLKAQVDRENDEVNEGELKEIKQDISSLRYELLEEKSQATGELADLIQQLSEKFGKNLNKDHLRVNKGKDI
Method: as §1

Structure (SMILES)	relaxation of the KPSS-contracted vessel ([1]; 100μM, peak relaxation) [%]	activity at hTRPA1 in primary screen (hTRPA1)	activity at hTRPM8 in primary screen (hTRPM8)	activity at hTRPC3 in primary screen (hTRPC3)	activity at hTRPC7 in primary screen (hTRPC7)	change in tension of KPSS-precontracted vessels ([1]; 50μM, bath application during KPSS-evoked contraction)	extent of relaxation ([1]; WT tissue, 50μM)
O=C(C1CCCCC1)N1CC(=O)N2CCc3ccccc3C2C1 (racemic) [±PZQ, praziquantel]	61±9	displayed activity	displayed activity	displayed activity	displayed activity		
O=C(C1CCCCC1)N1CC(=O)N2CCc3ccccc3[C@H]2C1 [(S)-PZQ]		activated	sole active enantiomer	activated	activated	decrease in tension	~ 30 % of peak KPSS-evoked tone
